Where two headings read alike, the source gives them in different places.

The assay addresses PHD2 (Homo sapiens, UniProt Q9GZT9). Nature of the assay: PHD2 / HIF-1α peptide hydroxylation assay with time resolved fluorescence readout (PHD2 binding activity). The following applies: FLAG-tagged full length PHD2, 0.2 μM 2-oxoglutarate, 0.5 μM HIF-1α peptide. It counts as biochemical. The protocol:
After a 30 min preincubation at room temperature, the enzymatic reactions were initiated by the addition of 4 μL of substrates (final concentrations of 0.2 μM 2-oxoglutarate and 0.5 μM HIF-1α peptide biotinyl-DLDLEMLAPYIPMDDDFQL). After 2 hr at room temperature, the reactions were terminated and signals were developed by the addition of a 25 μL quench/detection mix to a final concentration of 1 mM ortho-phenanthroline, 0.1 mM EDTA, 0.5 nM anti-(His)6 LANCE reagent (Perkin-Elmer Life Sciences), 100 nM AF647-labeled streptavidin (Invitrogen), and 2 μg/ml (His)6-VHL complex (S. Tan(2001) Protein Expr. Purif 21, 224-234). The ratio of time resolved fluorescence signals at 665 and 620 nm was determined, and percent inhibition was calculated relative to an uninhibited control sample run in parallel.

Setting [1] is: read-out: PHD2 Activity (PHD2 binding activity expressed as IC50).

Chain of PHD2 (Q9GZT9 whole entry): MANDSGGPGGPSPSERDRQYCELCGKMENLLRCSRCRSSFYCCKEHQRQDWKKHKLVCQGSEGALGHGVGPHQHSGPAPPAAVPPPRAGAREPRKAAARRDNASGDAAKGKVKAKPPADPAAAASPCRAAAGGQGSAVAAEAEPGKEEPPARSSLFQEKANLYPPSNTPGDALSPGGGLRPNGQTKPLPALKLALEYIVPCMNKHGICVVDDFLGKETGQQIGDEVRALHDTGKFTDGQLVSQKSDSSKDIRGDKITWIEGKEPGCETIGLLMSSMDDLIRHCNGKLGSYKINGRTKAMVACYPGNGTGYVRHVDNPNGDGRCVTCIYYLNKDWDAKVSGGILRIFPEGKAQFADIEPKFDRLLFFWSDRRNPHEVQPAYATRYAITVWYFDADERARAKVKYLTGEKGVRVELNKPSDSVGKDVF

For the compound `O=C(O)CNC(=O)c1c(O)c2c(n(Cc3ccc(C(F)(F)F)cc3)c1=O)CN(C(=O)N1CCOCC1)C2` [Example 11, N-({4-hydroxy-6-(morpholin-4-ylcarbonyl)-2-oxo-1-[4-(trifluoromethyl)benzyl]-2,5,6,7-tetrahydro-1H-pyrrolo[3,4-b]pyridin-3-yl}carbonyl)glycine], the IC50 (usually the concentration at which inhibition is half-maximal) under setting [1] was less than 10 nM.
On to `CN(C)S(=O)(=O)N1Cc2c(O)c(C(=O)NCC(=O)O)c(=O)n(Cc3ccc(C(F)(F)F)cc3)c2C1` [Example 12, N-({6-[(dimethylamino)sulfonyl]-4-hydroxy-2-oxo-1-[4-(trifluoromethyl)benzyl]-2,5,6,7-tetrahydro-1H-pyrrolo[3,4-b]pyridin-3-yl}carbonyl)glycine], for which the IC50 under setting [1] is less than 10 nM.
With `O=C(O)CNC(=O)c1c(O)c2c(n(Cc3ccc(C(F)(F)F)cc3)c1=O)CN(C(=O)C1CC1)C2` [Example 13, N-({6-(cyclopropylcarbonyl)-4-hydroxy-2-oxo-1-[4-(trifluoromethyl)benzyl]-2,5,6,7-tetrahydro-1H-pyrrolo[3,4-b]pyridin-3-yl}carbonyl)glycine], the IC50 (PHD2 Activity (PHD2 binding activity expressed as IC50)) was less than 10 nM.
As for `COCC(=O)N1Cc2c(O)c(C(=O)NCC(=O)O)c(=O)n(Cc3ccc(C(F)(F)F)cc3)c2C1` [Example 14, N-({4-hydroxy-6-(methoxyacetyl)-2-oxo-1-[4-(trifluoromethyl)benzyl]-2,5,6,7-tetrahydro-1H-pyrrolo[3,4-b]pyridin-3-yl}carbonyl)glycine], under setting [1], the IC50 is less than 10 nM.
Still for that read-out and setting: the figure for `CC(C)(C)C(=O)N1Cc2c(O)c(C(=O)NCC(=O)O)c(=O)n(Cc3ccc(C(F)(F)F)cc3)c2C1` [Example 15, N-({6-(2,2-dimethylpropanoyl)-4-hydroxy-2-oxo-1-[4-(trifluoromethyl)benzyl]-2,5,6,7-tetrahydro-1H-pyrrolo[3,4-b]pyridin-3-yl}carbonyl)glycine] is less than 10 nM.
On to `CCOC(=O)N1Cc2c(O)c(C(=O)NCC(=O)O)c(=O)n(Cc3ccc(C(F)(F)F)cc3)c2C1` [Example 16, N-({6-(ethoxycarbonyl)-4-hydroxy-2-oxo-1-[4-(trifluoromethyl)benzyl]-2,5,6,7-tetrahydro-1H-pyrrolo[3,4-b]pyridin-3-yl}carbonyl)glycine], for which, under setting [1], the IC50 was less than 10 nM.
For the compound `O=C(O)CNC(=O)c1c(O)c2c(n(Cc3ccc(C(F)(F)F)cc3)c1=O)CN(C(=O)N1CCCC1)C2` [Example 17, N-({4-hydroxy-2-oxo-6-(pyrrolidin-1-ylcarbonyl)-1-[4-(trifluoromethyl)benzyl]-2,5,6,7-tetrahydro-1H-pyrrolo[3,4-b]pyridin-3-yl}carbonyl)glycine], under setting [1], the IC50 was less than 10 nM.
Still for that read-out and setting: the figure for `O=C(O)CNC(=O)c1c(O)c2c(n(Cc3ccc(C(F)(F)F)cc3)c1=O)CN(C(=O)c1ccccc1Cl)C2` [Example 18, N-({6-(2-chlorobenzoyl)-4-hydroxy-2-oxo-1-[4-(trifluoromethyl)benzyl]-2,5,6,7-tetrahydro-1H-pyrrolo[3,4-b]pyridin-3-yl}carbonyl)glycine] is less than 10 nM; for `O=C(O)CNC(=O)c1c(O)c2c(n(Cc3ccc(C(F)(F)F)cc3)c1=O)CN(S(=O)(=O)c1ccccc1)C2` [Example 19, N-({4-hydroxy-2-oxo-6-(phenyl-sulfonyl)-1-[4-(trifluoromethyl)benzyl]-2,5,6,7-tetrahydro-1H-pyrrolo[3,4-b]pyridin-3-yl}carbonyl)glycine] it is less than 10 nM.
Still for that read-out and setting: the figure for `O=C(O)CNC(=O)c1c(O)c2c(n(Cc3ccc(C(F)(F)F)cc3)c1=O)CN(C(=O)C1CCCC1)C2` [Example 20, N-({6-(cyclopentylcarbonyl)-4-hydroxy-2-oxo-1-[4-(trifluoromethyl)benzyl]-2,5,6,7-tetrahydro-1H-pyrrolo[3,4-b]pyridin-3-yl}carbonyl)glycine] is less than 10 nM.
In the case of `O=C(O)CNC(=O)c1c(O)c2c(n(Cc3ccc(C(F)(F)F)cc3)c1=O)CN(C(=O)c1ccc(Cl)cc1)C2` [Example 21, N-({6-(4-chlorobenzoyl)-4-hydroxy-2-oxo-1-[4-(trifluoromethyl)benzyl]-2,5,6,7-tetrahydro-1H-pyrrolo[3,4-b]pyridin-3-yl}carbonyl)glycine], under setting [1], the IC50 is less than 10 nM.
The same measure, in the same setting: the figure for `CCOC(=O)N1Cc2c(O)c(C(=O)NCC(=O)O)c(=O)n(Cc3ccc(-c4ccccc4)cc3)c2C1` [Example 22, N-{[1-(biphenyl-4-ylmethyl)-6-(ethoxycarbonyl)-4-hydroxy-2-oxo-2,5,6,7-tetrahydro-1H-pyrrolo[3,4-b]pyridin-3-yl]carbonyl}glycine] is less than 10 nM; for `Cc1cc(C(=O)N2Cc3c(O)c(C(=O)NCC(=O)O)c(=O)n(Cc4ccc(C(F)(F)F)cc4)c3C2)n(C)n1` [Example 23, N-({6-[(1,3-dimethyl-1H-pyrazol-5-yl)carbonyl]-4-hydroxy-2-oxo-1-[4-(trifluoromethyl)benzyl]-2,5,6,7-tetrahydro-1H-pyrrolo[3,4-b]pyridin-3-yl}carbonyl)glycine] it is less than 10 nM; for `O=C(O)CNC(=O)c1c(O)c2c(n(Cc3ccc(C(F)(F)F)cc3)c1=O)CN(C(=O)c1cc3ncccn3n1)C2` [Example 24, N-({4-hydroxy-2-oxo-6-(pyrazolo[1,5-a]pyrimidin-2-ylcarbonyl)-1-[4-(trifluoromethyl)benzyl]-2,5,6,7-tetrahydro-1H-pyrrolo[3,4-b]pyridin-3-yl}carbonyl)glycine] it is less than 10 nM.
Regarding `O=C(O)CNC(=O)c1c(O)c2c(n(Cc3ccc(C(F)(F)F)cc3)c1=O)CN(C(=O)c1cccnc1)C2` [Example 25, N-({4-hydroxy-2-oxo-6-(pyridin-3-ylcarbonyl)-1-[4-(trifluoromethyl)benzyl]-2,5,6,7-tetrahydro-1H-pyrrolo[3,4-b]pyridin-3-yl}carbonyl)glycine], the IC50 under setting [1] was less than 10 nM.
On the same count and under the same terms, the figure for `Cc1ccc(C(=O)N2Cc3c(O)c(C(=O)NCC(=O)O)c(=O)n(Cc4ccc(C(F)(F)F)cc4)c3C2)cn1` [Example 26, N-({4-hydroxy-6-[(6-methylpyridin-3-yl)carbonyl]-2-oxo-1-[4-(trifluoromethyl)benzyl]-2,5,6,7-tetrahydro-1H-pyrrolo[3,4-b]pyridin-3-yl}carbonyl)glycine] is less than 10 nM; for `CN1CCC[C@H]1C(=O)N1Cc2c(O)c(C(=O)NCC(=O)O)c(=O)n(Cc3ccc(C(F)(F)F)cc3)c2C1` [Example 27, N-({4-hydroxy-6-(1-methyl-L-prolyl)-2-oxo-1-[4-(trifluoromethyl)benzyl]-2,5,6,7-tetrahydro-1H-pyrrolo[3,4-b]pyridin-3-yl}carbonyl)glycine] it is less than 10 nM.
Consider `O=C(O)CNC(=O)c1c(O)c2c(n(Cc3ccc(C(F)(F)F)cc3)c1=O)CN(C(=O)[C@@H]1CCC(=O)N1)C2` [Example 28, N-({4-hydroxy-2-oxo-6-(5-oxo-L-prolyl)-1-[4-(trifluoromethyl)benzyl]-2,5,6,7-tetrahydro-1H-pyrrolo[3,4-b]pyridin-3-yl}carbonyl)glycine], for which the IC50 under setting [1] was less than 10 nM.
The same measure, in the same setting: the figure for `O=C(O)CNC(=O)c1c(O)c2c(n(Cc3ccc(C(F)(F)F)cc3)c1=O)CN(C(=O)c1cscn1)C2` [Example 29, N-({4-hydroxy-2-oxo-6-(1,3-thiazol-4-ylcarbonyl)-1-[4-(trifluoromethyl)benzyl]-2,5,6,7-tetrahydro-1H-pyrrolo[3,4-b]pyridin-3-yl}carbonyl)glycine] is less than 10 nM.

The values above are taken from patent publication US8372863B2, “Tetrahydro-1H-pyrrolo fused pyridones” (Merck Sharp & Dohme Corp., priority 2008, dated 2013).
